{
  "source": "paper PMC5447021",
  "about": "“TNF Lectin-Like Domain Restores Epithelial Sodium Channel Function in Frameshift Mutants Associated with Pseudohypoaldosteronism Type 1B” (Frontiers in Immunology, 2017)",
  "molecular_target": "T1, αβγ-hENaC (Homo sapiens, UniProt P37088+P51168+P51170)",
  "T1 construct": "expressed in transfected cells; host or cells: HEK-293",
  "T1 sequence (P37088 1-669)": "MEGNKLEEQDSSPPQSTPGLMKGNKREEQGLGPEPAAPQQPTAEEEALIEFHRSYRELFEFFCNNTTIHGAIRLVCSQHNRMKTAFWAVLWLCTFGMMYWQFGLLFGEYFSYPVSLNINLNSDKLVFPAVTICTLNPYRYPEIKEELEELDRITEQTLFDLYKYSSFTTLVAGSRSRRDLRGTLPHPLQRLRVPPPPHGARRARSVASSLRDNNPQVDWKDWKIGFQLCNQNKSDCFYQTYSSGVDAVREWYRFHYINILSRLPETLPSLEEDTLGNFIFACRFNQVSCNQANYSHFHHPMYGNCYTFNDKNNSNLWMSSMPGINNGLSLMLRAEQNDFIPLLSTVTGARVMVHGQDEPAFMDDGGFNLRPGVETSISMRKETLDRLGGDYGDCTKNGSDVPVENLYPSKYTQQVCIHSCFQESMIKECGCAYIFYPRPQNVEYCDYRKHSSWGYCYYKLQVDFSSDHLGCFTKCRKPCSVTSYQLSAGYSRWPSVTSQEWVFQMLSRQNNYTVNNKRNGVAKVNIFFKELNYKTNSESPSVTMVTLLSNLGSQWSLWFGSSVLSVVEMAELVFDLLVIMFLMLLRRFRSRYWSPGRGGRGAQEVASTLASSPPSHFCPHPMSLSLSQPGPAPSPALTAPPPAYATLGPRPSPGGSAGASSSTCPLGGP",
  "T1 sequence (P51168 1-640 partner)": "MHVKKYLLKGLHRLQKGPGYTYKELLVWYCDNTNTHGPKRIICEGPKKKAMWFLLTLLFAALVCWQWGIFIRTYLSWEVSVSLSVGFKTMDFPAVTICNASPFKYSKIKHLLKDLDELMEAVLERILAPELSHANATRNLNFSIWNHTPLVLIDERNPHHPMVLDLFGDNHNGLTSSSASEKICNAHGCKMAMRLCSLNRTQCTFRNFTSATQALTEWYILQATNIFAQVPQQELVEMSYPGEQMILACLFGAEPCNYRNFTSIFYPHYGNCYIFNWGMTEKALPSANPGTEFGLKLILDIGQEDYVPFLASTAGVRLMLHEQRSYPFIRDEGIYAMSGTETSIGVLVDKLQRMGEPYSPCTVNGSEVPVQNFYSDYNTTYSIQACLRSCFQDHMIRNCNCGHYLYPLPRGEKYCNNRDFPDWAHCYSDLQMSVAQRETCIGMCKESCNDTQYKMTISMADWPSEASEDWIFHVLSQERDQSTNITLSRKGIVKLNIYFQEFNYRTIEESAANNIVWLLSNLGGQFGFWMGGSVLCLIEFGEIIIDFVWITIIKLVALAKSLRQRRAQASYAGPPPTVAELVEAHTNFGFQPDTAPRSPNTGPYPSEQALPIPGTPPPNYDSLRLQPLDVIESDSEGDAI",
  "T1 sequence (P51170 1-649 partner)": "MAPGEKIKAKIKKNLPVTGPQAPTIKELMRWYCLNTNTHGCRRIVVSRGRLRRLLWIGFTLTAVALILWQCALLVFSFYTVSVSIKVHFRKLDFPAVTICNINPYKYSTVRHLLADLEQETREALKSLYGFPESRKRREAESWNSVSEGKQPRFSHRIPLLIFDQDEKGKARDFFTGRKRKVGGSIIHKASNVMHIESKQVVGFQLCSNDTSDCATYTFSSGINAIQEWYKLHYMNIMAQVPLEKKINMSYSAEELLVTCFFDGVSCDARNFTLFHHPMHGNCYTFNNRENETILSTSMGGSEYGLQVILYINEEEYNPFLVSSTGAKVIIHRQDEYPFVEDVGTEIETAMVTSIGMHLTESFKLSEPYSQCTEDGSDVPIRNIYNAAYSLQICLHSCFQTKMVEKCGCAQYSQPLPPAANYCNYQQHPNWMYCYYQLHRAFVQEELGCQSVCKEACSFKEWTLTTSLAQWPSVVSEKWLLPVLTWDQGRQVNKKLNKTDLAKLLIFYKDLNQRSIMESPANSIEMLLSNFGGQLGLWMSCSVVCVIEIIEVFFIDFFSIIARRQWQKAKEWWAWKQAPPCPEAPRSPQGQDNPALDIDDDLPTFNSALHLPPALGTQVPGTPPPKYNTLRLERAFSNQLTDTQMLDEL",
  "test": "Whole-cell patch clamp, WT αβγ-hENaC",
  "assay_type": "cell-based",
  "conditions": "exposure time, WT αβγ-ENaC (Figure 1)",
  "description": "Point mutations of α-, β-, γ- and δ-hENaC and PHA1B frameshift mutations of α-hENaC were prepared with the QuikChange Lightning Site-Directed Mutagenesis Kit (Agilent Technologies, CA, USA). Mutagenic primers were designed individually with the Primer Design Program provided on the producer’s website or for the frameshift mutations the same base changes as reported in patients (see Table 2) were performed. Primers were ordered from Sigma-Aldrich, Vienna, Austria.\nHEK-293 cells were transfected 1 day after cell seeding using X-tremeGENE HP DNA transfection reagent (Roche Diagnostics, Mannheim, Germany) according to the manufacturer’s protocol. A set of WT or mutant αβγ- or δβγ-hENaC, or α-, β-, γ-, or δ-hENaC alone was used, and the ratio of DNA to transfection reagent was 1:3. The expression was highest 48–72 h after transfection.\nElectrophysiological experiments were performed as described in detail by Shabbir et al. ([16]). […] Currents were recorded with the patch clamp method in the whole-cell mode. The chamber contained 1 ml of the bath solution of the following composition (in mM): 145 NaCl, 2.7 KCl, 1.8 CaCl2, 2 MgCl2, 5.5 glucose, and 10 HEPES, adjusted to pH 7.4 with 1 M NaOH solution. Micropipettes were pulled from thin-walled borosilicate glass capillaries (Harvard Apparatus, Holliston, MA, USA) with a DMZ Zeitz Puller to obtain electrode resistances ranging from 2 to 5 MΩ. The pipette solution contained (in millimolars): 135 potassium methane sulfonate, 10 KCl, 6 NaCl, 1 Mg2ATP, 2 Na3ATP, 10 HEPES, and 0.5 EGTA, adjusted to pH 7.2 with 1 M KOH solution. Chemicals for pipette and bathing solutions were supplied by Sigma-Aldrich (Vienna, Austria). Electrophysiological measurements were carried out with an Axopatch 200B patch clamp amplifier (Axon Instruments, CA, USA). Capacity transients were canceled, and series resistance was compensated. Whole-cell currents were filtered at 5 kHz and sampled at 10 kHz. Data acquisition and storage were processed directly to a PC equipped with pCLAMP 10.2 software (Axon Instruments, CA, USA). […]",
  "data": [
    {"smiles": "C[C@@H]1NC(=O)CNC(=O)[C@H](CCC(=O)O)NC(=O)[C@@H]2CCCN2C(=O)[C@H]([C@@H](C)O)NC(=O)[C@H](CCC(=O)O)NC(=O)[C@H](CCCNC(=N)N)NC(=O)[C@H](CCC(N)=O)NC(=O)CNC(=O)[C@@H](N)CSSC[C@@H](C(=O)O)NC(=O)[C@H](Cc2ccc(O)cc2)NC(=O)[C@H](Cc2c[nH]c3ccccc23)NC(=O)[C@@H]2CCCN2C(=O)[C@H](CCCCN)NC(=O)[C@H](C)NC(=O)[C@H](CCC(=O)O)NC1=O", "note": "[solnatide, L-cysteine, L-cysteinylglycyl-L-glutaminyl-L-arginyl-L-α-glutamyl-L-threonyl-L-prolyl-L-α-glutamylglycyl-L-alanyl-L-α-glutamyl-L-alanyl-L-lysyl-L-prolyl-L-tryptophyl-L-tyrosyl-, cyclic (1→17)-disulfide]", "values": [
      {"measurement": "Time to maximal stimulatory effect", "value": "~ 2 min"}
    ]}
  ]
}
